Key:
Assay type in all cases: cell-based
[1] = target: proteins of HEK293T cells transiently overexpressing caspase-6 (Homo sapiens, UniProt P33176); conditions: Probe; protein KIF5B P33176
[2] = target: proteins of HEK293T cells transiently overexpressing caspase-6 (Homo sapiens, UniProt P63261); conditions: exp_ref Probe; protein ACTG1 (P63261); analysis C6
[3] = target: proteins of HEK293T cells transiently overexpressing caspase-6 (Homo sapiens, UniProt P41250); conditions: exp_ref Probe; protein GARS (P41250); analysis C6
[4] = target: proteins of HEK293T cells transiently overexpressing caspase-6 (Homo sapiens, UniProt P54886); conditions: exp_ref Probe; protein ALDH18A1 (P54886); analysis C6
[5] = target: proteins of HEK293T cells transiently overexpressing caspase-6 (Homo sapiens, UniProt P40227); conditions: exp_ref Probe; protein CCT6A (P40227); analysis C6
[6] = target: proteins of HEK293T cells transiently overexpressing caspase-6 (Homo sapiens, UniProt P31948)
[7] = target: proteins of HEK293T cells transiently overexpressing caspase-6 (Homo sapiens, UniProt P35579); conditions: Probe; protein MYH9 P35579
[8] = target: proteins of HEK293T cells transiently overexpressing caspase-6 (Homo sapiens, UniProt P62913); conditions: protein RPL11 (P62913)
[9] = target: proteins of HEK293T cells transiently overexpressing caspase-6 (Homo sapiens, UniProt P43243); conditions: exp_ref Probe; protein MATR3 (P43243); analysis C6
[10] = target: proteins of HEK293T cells transiently overexpressing caspase-6 (Homo sapiens, UniProt P46779); conditions: exp_ref Probe; protein RPL28 (P46779); analysis C6
[11] = target: T1, proteins of HEK293T cells transiently overexpressing caspase-6 (Homo sapiens, UniProt P09622)
T1 sequence (P09622 36-509): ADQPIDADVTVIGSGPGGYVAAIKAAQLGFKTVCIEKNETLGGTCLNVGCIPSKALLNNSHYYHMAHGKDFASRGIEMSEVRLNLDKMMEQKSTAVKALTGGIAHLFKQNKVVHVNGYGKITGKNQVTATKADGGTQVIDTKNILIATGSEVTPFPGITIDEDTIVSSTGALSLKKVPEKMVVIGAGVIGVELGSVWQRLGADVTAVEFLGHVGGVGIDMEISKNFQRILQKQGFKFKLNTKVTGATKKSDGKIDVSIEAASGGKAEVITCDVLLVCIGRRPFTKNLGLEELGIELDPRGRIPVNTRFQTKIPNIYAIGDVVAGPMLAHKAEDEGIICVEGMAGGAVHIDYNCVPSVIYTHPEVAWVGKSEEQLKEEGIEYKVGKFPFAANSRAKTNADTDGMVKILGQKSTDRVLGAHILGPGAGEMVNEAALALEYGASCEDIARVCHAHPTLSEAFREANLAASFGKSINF

[12] = target: proteins of HEK293T cells transiently overexpressing caspase-6 (Homo sapiens, UniProt P60900); conditions: exp_ref Probe; protein PSMA6 (P60900); analysis C6
[13] = target: proteins of HEK293T cells transiently overexpressing caspase-6 (Homo sapiens, UniProt P33992); conditions: exp_ref Probe; protein MCM5 (P33992); analysis C6
[14] = target: proteins of HEK293T cells transiently overexpressing caspase-6 (Homo sapiens, UniProt P84090); conditions: Probe; protein ERH P84090
[15] = target: proteins of HEK293T cells transiently overexpressing caspase-6 (Homo sapiens, UniProt P26640); conditions: Probe; protein VARS P26640
[16] = target: proteins of HEK293T cells transiently overexpressing caspase-6 (Homo sapiens, UniProt O43390); conditions: exp_ref Probe; protein HNRNPR (O43390); analysis C6
[17] = target: proteins of HEK293T cells transiently overexpressing caspase-6 (Homo sapiens, UniProt P62701); conditions: exp_ref Probe; protein RPS4X (P62701); analysis C6
[18] = target: proteins of HEK293T cells transiently overexpressing caspase-6 (Homo sapiens, UniProt Q02790); conditions: exp_ref Probe; protein FKBP4 (Q02790); analysis C6
[19] = target: proteins of HEK293T cells transiently overexpressing caspase-6 (Homo sapiens, UniProt O95373); conditions: Probe; protein IPO7 O95373
[20] = target: proteins of HEK293T cells transiently overexpressing caspase-6 (Homo sapiens, UniProt Q9NNW7); conditions: Probe; protein TXNRD2 Q9NNW7
[21] = target: proteins of HEK293T cells transiently overexpressing caspase-6 (Homo sapiens, UniProt P36578); conditions: exp_ref Probe; protein RPL4 (P36578); analysis C6
[22] = target: proteins of HEK293T cells transiently overexpressing caspase-6 (Homo sapiens, UniProt P13804); conditions: exp_ref Probe; protein ETFA (P13804); analysis C6
[23] = target: proteins of HEK293T cells transiently overexpressing caspase-6 (Homo sapiens, UniProt Q99873); conditions: exp_ref Probe; protein PRMT1 (Q99873); analysis C6
Sequence of proteins of HEK293T cells transiently overexpressing caspase-6 (Homo sapiens, UniProt Q99873) (Q99873 whole entry): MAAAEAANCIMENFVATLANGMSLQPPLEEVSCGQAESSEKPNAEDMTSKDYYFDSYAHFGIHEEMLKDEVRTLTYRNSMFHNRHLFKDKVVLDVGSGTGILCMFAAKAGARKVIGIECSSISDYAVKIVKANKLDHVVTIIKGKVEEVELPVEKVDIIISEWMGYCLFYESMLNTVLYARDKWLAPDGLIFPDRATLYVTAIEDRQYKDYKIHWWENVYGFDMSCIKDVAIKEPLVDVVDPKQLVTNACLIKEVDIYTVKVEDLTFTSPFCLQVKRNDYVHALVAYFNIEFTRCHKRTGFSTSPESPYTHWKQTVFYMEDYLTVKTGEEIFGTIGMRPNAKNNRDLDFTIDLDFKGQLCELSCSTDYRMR

Sequence of proteins of HEK293T cells transiently overexpressing caspase-6 (Homo sapiens, UniProt P31948) (P31948 whole entry): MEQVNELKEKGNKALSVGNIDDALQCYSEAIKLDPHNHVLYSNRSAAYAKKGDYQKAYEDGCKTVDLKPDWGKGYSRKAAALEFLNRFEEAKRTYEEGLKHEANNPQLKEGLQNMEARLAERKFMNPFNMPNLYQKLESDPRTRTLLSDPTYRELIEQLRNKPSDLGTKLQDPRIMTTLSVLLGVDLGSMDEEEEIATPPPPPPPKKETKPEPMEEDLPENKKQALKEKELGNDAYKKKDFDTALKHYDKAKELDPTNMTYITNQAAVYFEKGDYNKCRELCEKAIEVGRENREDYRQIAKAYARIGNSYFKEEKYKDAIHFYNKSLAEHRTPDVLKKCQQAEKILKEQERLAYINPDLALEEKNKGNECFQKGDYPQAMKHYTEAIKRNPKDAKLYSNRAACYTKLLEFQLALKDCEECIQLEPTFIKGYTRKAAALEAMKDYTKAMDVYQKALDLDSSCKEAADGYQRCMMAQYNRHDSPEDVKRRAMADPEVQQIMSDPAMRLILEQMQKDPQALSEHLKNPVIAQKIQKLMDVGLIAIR
Sequence of proteins of HEK293T cells transiently overexpressing caspase-6 (Homo sapiens, UniProt P60900) (P60900 whole entry): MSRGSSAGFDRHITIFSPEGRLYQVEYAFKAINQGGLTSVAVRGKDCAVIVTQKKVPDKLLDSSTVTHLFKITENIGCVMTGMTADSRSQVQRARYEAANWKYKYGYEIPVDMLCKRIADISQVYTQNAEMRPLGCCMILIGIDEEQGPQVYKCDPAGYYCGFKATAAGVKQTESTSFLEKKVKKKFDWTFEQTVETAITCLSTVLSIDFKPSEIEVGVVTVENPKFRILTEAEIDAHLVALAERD
Sequence of proteins of HEK293T cells transiently overexpressing caspase-6 (Homo sapiens, UniProt P35579) (P35579 whole entry): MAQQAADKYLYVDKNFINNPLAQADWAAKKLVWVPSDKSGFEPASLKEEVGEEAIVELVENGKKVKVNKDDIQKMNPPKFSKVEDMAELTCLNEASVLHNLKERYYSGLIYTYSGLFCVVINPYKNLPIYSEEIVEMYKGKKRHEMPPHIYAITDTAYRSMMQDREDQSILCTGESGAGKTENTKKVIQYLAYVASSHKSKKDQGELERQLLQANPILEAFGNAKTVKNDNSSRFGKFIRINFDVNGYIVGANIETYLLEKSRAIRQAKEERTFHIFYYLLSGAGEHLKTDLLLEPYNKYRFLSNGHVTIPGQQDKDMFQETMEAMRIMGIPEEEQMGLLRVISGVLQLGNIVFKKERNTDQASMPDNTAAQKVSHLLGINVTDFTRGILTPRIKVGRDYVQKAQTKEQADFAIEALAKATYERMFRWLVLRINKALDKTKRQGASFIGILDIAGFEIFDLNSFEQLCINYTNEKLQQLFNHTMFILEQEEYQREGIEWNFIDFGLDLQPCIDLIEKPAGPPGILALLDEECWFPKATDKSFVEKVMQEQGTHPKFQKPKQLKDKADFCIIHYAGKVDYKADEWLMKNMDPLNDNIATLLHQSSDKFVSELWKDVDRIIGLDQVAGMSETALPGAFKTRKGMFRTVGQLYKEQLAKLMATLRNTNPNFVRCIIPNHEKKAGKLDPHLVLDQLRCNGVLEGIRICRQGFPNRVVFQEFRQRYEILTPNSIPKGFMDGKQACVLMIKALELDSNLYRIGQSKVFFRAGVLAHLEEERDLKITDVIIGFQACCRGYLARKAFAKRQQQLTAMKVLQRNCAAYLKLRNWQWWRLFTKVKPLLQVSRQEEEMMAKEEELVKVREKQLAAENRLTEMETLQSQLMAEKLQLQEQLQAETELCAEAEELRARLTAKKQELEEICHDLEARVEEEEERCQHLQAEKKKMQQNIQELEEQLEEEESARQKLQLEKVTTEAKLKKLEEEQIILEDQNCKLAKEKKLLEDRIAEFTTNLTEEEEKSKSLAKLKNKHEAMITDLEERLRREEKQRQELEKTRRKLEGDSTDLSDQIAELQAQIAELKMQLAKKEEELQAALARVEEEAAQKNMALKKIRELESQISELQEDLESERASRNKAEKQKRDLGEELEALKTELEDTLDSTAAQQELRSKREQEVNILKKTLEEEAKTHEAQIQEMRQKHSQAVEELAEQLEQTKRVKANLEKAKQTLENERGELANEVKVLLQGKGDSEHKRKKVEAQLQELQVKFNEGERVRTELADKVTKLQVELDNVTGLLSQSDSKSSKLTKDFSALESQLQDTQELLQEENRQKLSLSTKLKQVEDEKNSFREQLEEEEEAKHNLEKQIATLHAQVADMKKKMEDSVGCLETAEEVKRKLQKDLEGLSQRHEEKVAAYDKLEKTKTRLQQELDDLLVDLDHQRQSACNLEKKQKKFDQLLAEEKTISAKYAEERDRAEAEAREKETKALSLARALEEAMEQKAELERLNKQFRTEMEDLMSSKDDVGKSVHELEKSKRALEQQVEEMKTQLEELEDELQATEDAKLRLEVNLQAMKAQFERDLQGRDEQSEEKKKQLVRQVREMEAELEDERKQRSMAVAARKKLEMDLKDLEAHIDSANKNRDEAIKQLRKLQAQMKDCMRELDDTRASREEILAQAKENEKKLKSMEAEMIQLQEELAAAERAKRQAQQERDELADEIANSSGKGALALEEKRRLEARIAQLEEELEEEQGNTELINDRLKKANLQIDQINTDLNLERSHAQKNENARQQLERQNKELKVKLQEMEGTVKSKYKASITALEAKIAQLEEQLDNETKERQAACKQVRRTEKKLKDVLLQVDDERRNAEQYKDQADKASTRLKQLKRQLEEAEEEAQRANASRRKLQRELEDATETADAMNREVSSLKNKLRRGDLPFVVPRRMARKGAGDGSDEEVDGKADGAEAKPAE
Sequence of proteins of HEK293T cells transiently overexpressing caspase-6 (Homo sapiens, UniProt Q02790) (Q02790 whole entry): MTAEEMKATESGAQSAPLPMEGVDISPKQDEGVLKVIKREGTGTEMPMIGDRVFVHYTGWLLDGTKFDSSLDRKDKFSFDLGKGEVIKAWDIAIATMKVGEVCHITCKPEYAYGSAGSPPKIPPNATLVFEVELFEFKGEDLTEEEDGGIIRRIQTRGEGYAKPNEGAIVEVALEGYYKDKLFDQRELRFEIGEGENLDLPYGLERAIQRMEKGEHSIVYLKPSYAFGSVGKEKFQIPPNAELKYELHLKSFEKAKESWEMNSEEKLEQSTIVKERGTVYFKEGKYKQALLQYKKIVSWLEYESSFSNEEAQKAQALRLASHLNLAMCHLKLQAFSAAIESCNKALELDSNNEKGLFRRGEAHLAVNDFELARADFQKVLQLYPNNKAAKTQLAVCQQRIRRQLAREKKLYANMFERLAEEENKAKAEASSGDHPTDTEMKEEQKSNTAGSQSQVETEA
Sequence of proteins of HEK293T cells transiently overexpressing caspase-6 (Homo sapiens, UniProt P33992) (P33992 whole entry): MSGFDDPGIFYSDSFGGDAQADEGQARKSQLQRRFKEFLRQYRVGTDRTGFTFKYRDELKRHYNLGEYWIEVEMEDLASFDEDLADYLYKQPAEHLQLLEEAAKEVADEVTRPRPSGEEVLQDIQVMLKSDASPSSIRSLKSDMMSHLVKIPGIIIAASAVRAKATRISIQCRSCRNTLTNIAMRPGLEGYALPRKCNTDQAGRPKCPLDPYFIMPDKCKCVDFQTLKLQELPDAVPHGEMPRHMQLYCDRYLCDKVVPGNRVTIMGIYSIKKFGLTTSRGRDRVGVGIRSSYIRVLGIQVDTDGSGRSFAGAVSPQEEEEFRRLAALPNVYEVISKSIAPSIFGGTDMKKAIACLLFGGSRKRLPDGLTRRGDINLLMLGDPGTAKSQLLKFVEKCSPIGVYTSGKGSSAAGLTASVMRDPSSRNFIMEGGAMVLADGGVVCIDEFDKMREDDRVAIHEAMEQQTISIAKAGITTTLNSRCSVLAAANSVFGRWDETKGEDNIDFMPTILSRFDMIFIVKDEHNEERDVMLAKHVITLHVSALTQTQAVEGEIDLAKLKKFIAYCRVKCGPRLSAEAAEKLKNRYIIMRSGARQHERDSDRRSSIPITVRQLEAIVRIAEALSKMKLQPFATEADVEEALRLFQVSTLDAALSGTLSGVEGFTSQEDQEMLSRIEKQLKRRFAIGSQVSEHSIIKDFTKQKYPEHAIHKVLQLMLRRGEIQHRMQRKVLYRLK
Sequence of proteins of HEK293T cells transiently overexpressing caspase-6 (Homo sapiens, UniProt P40227) (P40227 whole entry): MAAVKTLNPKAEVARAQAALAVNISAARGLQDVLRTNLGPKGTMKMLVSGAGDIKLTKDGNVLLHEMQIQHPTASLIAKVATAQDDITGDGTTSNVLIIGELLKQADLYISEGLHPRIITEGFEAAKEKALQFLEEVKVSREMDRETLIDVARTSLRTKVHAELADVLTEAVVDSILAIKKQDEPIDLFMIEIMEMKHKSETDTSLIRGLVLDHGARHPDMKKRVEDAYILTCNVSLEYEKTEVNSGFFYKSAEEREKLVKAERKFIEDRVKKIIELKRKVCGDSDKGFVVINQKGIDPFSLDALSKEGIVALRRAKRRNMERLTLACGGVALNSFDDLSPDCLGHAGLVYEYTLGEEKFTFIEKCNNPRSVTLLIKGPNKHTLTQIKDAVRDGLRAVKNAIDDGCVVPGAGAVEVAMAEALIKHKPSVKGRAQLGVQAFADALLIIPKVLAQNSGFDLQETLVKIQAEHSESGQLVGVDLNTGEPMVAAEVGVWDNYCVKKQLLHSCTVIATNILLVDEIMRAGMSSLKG
Sequence of proteins of HEK293T cells transiently overexpressing caspase-6 (Homo sapiens, UniProt P84090) (P84090 whole entry): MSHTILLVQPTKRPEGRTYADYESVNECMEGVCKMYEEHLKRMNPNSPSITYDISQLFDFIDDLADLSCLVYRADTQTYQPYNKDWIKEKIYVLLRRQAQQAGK

Work on `C#CCOc1ccc([C@@H]2C[C@@H](C(=O)Nc3ccc(OC(F)(F)F)cc3)CN(S(=O)(=O)C=C)C2)cc1` (relative stereo) [13-t] yielded an enrich.exp.med [1] of -5.169, an enrich.exp.med [2] of 0.6252 and an enrich.exp.med [3] of 1.008. It also gave an enrich.exp.med [4] of 0.3406, an enrich.exp.med [5] of 0.2516 and an enrich.exp.med ([6]; Probe, protein STIP1 P31948) of -0.591. The enrich.exp.med.lin ([6]; protein STIP1 (P31948)) was 0.6639, the enrich.exp.med.log2 ([6]; protein STIP1 (P31948)) was -0.591 and the enrich.exp.med [7] was -0.6242. For the same compound, the enrich.exp.med.lin [8] was 2.408, the enrich.exp.med.log2 [8] was 1.268 and the enrich.exp.med ([8]; exp_ref Probe, analysis C6) was 1.268. It also gave an enrich.exp.med [9] of 0.5323, an enrich.exp.med [10] of -0.3003 and an enrich.exp.med ([11]; Probe, protein DLD P09622) of -1.39. It also gave an enrich.exp.med.lin ([11]; protein DLD (P09622)) of 0.3817, an enrich.exp.med.log2 ([11]; protein DLD (P09622)) of -1.39 and an enrich.exp.med [12] of -0.241. The enrich.exp.med [13] was 1.028, the enrich.exp.med [14] was -0.8193 and the enrich.exp.med [15] was -1.705. It also gave an enrich.exp.med [16] of 0.1675, an enrich.exp.med [17] of 0.8885 and an enrich.exp.med [18] of 0.8165. The enrich.exp.med [19] was -0.5106, the enrich.exp.med [20] was -0.4404 and the enrich.exp.med [21] was 0.4261. The enrich.exp.med [22] was 0.5734 and the enrich.exp.med [23] was -0.1105.

Reference: publication PMC10176470, “Engaging a Non-catalytic Cysteine Residue Drives Potent and Selective Inhibition of Caspase-6” (Journal of the American Chemical Society, 2023)
